According to paper PMC4718940, “Preclinical studies of 5-fluoro-2′-deoxycytidine and tetrahydrouridine in pediatric brain tumors” (Journal of Neuro-Oncology, 2015):
Where two headings read alike, the source gives them in different places.

Legend:
[1] = system: tumorspheres derived from murine G3 MB, EP, and CPC; experiment: In vitro growth inhibition, all three tumor cell types (summary); format: cell-based; details: Mus musculus, 72 hr
[2] = system: mouse G3 MB tumorspheres (Myc1, Myc2); experiment: In vitro proliferation/cell cycle, BrdU FACS; format: cell-based; details: 4 nM FdCyd alone, compared to DMSO-treated cells
Excerpt: (§1) See Supplementary Material for more details.
(§2) Tumors were fixed in 10% formalin.

BJ cells = experiment: FdCyd growth inhibition, BJ control cells; format: cell-based, human; details: Fig. 2c
CPC tumors = experiment: In vivo proliferation, Ki67 immunohistochemistry, CPC
Protocol: (§5) To assess apoptosis and proliferation in vivo, G3 MB, EP, and CPC tumors were isolated from mice 3, 8, or 24 h after treatment with compound or vehicle, fixed in 10 % formalin, and sections were immunostained with antibodies to Caspase 3 (apoptosis) or Ki67 (proliferation).
(§6) In vivo apoptosis and proliferation were performed on G3 MB, EP, and CPC tumors isolated from mice 3, 8, or 24 hr after treatment with compound or vehicle (saline). Tumors were fixed in 10% formalin. Sections (4-micron) were immunostained with antibodies to Caspase 3 (CP229C, BioCare Medical, Concorde, CA) to detect apoptotic cells, or Ki67 (ThermoShandon, RM9106) to detect proliferation. The number of positive cells for each stain was normalized to the total number of cells.
(§7) Mice bearing G3 MB, EP, or CPC tumors were harvested 3, 8, or 24 hr after IP injection of vehicle (V) or FdCyd + THU (FdCyd). Fixed brains were sliced and stained for Ki67. The percentage of positive cells was calculated based on total number of cells.

EP tumors [3] = experiment: In vivo apoptosis, Caspase 3 immunohistochemistry, EP
Protocol: as §5, §6
(§8) Mice bearing G3 MB, EP, or CPC tumors were harvested 3, 8, or 24 hr after IP injection of vehicle (V) or FdCyd + THU (FdCyd). Fixed brains were sliced and stained for caspase 3. The percentage of positive cells was calculated based on total number of cells. SD= standard deviation.

EP cells [4] = experiment: Effect of deoxycytidine on FdCyd efficacy, 72 h, CellTiter-Glo; format: cell-based; details: Mus musculus; FdCyd alone, 72 h exposure
Protocol: To test the effect of deoxycytidine on FdCyd efficacy, EP cells were plated in 96 well plates. After 24 h, FdCyd was added at final concentrations ranging from 0.1 nM to 50 μM alone or together with fixed concentration of deoxycytidine (Sigma) of 0.0122, 0.195, 6.25 or 100 μM.
(§3) In both experiments, 72 h after drug addition to cells, we added 100 µL of CellTiter-Glo reagent (Promega), and we read the luminescence signal. Data analysis used GraphPad Prism software (Version 5.04).

[5] = In vitro brain homogenate binding; format: in vitro ADME; details: data not shown, read-out: fu,b (unbound fraction, brain homogenate)
[6] = system: Mouse G3 MB Myc1 neurospheres; experiment: 72 h dose response, CellTiter-Glo, mouse G3 MB neurospheres; format: cell-based; details: Mus musculus, Fig. 2a, read-out: EC50
Protocol: In the Discovery Phase, the initial studies included the screen of a library of 9 compounds against epigenetic regulators at a single concentration and a dose-response on G3 MB, EP, and CPC tumor cells, as well as HEPG2 and BJ (Fig. 1). The library and dose response studies are described in the Supplementary Material.
Briefly, cells (see Supplementary Table S2 for cell identity) were plated in 384-well plates (Corning) in 30 µL of supplemented neurobasal medium by using an automated plate filler (Wellmate, Matrix). After 24 hr, 28 nL of compound was transferred via pin tool, resulting in a final drug concentration of approximately 4 nM to 10 µM. After 72 hr of treatment, CellTiter-Glo reagent (Promega) was added, and the luminescence signal was measured using an automated Envision plate reader (Perkin-Elmer). Luminescence data were normalized by log10-transformation prior to calculating the percentage of inhibition using the following equation: 100 × (negative control mean − compound value)/(negative control mean − positive control mean). Our negative control represents cells treated with 0.1% DMSO with 0% inhibition. Cells treated with 35 µM cycloheximide (G3 MB tumor spheres) or 10 µM panobinostat (EP and CPC cells) were used as positive controls with 100% inhibition. The response of cells to the compounds were normalized to that of the positive controls present in each plate screened, shown in the Y axis of the dose-response curve. […] Unless otherwise reported, the y-axis for each dose response curve in the figures was independently normalized to the range from 0 to 1 and therefore reported as ‘relative growth inhibition’. High through put assay data were analyzed by using our in-house Robust Interpretation of Screening Experiments (RISE) application that was written in Pipeline Pilot (Accelrys, v. 8.5) and R (R Development Core Team).

G3 MB tumors [7] = experiment: In vivo proliferation, Ki67 immunohistochemistry, G3 MB
Protocol: as §5, §6, §7

CPC cells = experiment: FdCyd wash-out experiment, CPC; format: cell-based; details: Mus musculus
Protocol: (§4) Myc1 and Myc2 G3 MB, EP, and CPC tumor cells (Supplementary Table 1) were plated in 96-well plates. After 24 h, 128 nL of a dilution series of a selected drug was transferred creating a final drug concentration of 0.5–9.3 µM. To assess the optimal exposure time, the drug was removed and replaced with fresh medium after 1, 3, 6, 10, 24, or 72 h (“wash-out”).
as §3

EP cells [8] = experiment: FdCyd wash-out experiment, EP; format: cell-based; details: Mus musculus
Protocol: as §4, §3

[9] = system: mouse G3 MB tumorspheres (Myc1, Myc2); experiment: In vitro apoptosis, Annexin V and DAPI FACS; format: cell-based; details: 4 nM FdCyd alone, 24, 48, 72 h, compared to DMSO-treated cells
Excerpt: as §1, §2

G3 MB tumors [10] = experiment: In vivo apoptosis, Caspase 3 immunohistochemistry, G3 MB
Protocol: as §5, §6, §8

[11] = system: Ink4a/Arf−/− neural stem cells; experiment: FdCyd growth inhibition, neural stem cells; format: cell-based, mouse; details: Fig. 2c
[12] = system: Patient-derived xenograft of a human G3 medulloblastoma, TB-12-5950; experiment: 72 h dose response, CellTiter-Glo, human G3 MB PDX cells; format: cell-based; details: Fig. 2b
G3 MB (Myc1) cells = experiment: FdCyd wash-out experiment, G3 MB; format: cell-based; details: Mus musculus
Protocol: as §4, §3

HEPG2 cells = experiment: FdCyd growth inhibition, HEPG2 control cells; format: cell-based, human; details: Fig. 2c
[13] = system: Trp53−/−, Cdkn2c−/− neurospheres; experiment: FdCyd growth inhibition, control neurospheres; format: cell-based, mouse; details: Fig. 2c
EP tumors [14] = experiment: In vivo proliferation, Ki67 immunohistochemistry, EP
Protocol: as §5, §6, §7

[15] = system: Patient-derived xenograft of a human EP; experiment: 72 h dose response, CellTiter-Glo, human EP PDX cells; format: cell-based; details: Fig. 2b
[16] = 1 h exposure then wash-out, read at 72 h, read-out: EC50 after 1 h FdCyd exposure
[17] = 72 h, wash-out, 1st of 4 values listed for the remaining time points (3, 6, 10, 24, 72 h), read-out: EC50, longer exposure
[18] = 72 h, wash-out, 2nd of 4 values listed for the remaining time points (3, 6, 10, 24, 72 h), read-out: EC50, longer exposure
[19] = 72 h, wash-out, 3rd of 4 values listed for the remaining time points (3, 6, 10, 24, 72 h), read-out: EC50, longer exposure
[20] = 72 h, wash-out, 4th of 4 values listed for the remaining time points (3, 6, 10, 24, 72 h), read-out: EC50, longer exposure

## Nc1nc(=O)n([C@H]2C[C@H](O)[C@@H](CO)O2)cc1F [FdCyd, 5-fluoro-2′-deoxycytidine]
[1]
  EC50: 1 to 6 nM
[2]
  cell cycle distribution (BrdU): increased the number of cells in the G0/G1phase
BJ cells
  sensitivity to FdCyd (growth inhibition): not
CPC tumors; 3 hr after IP injection of FdCyd + THU, vehicle 59.03
  Ki67 % of positive cells: 47.82%
CPC tumors; 8 hr after IP injection of FdCyd + THU, vehicle 62.25
  Ki67 % of positive cells: 23.4%
CPC tumors; 24 hr after IP injection of FdCyd + THU, vehicle 53.18
  Ki67 % of positive cells: 61.3%
EP tumors [3]; 3 hr after IP injection of FdCyd + THU, vehicle 0.9975
  Caspase-3 % of positive cells: 1.416%
EP tumors [3]; 8 hr after IP injection of FdCyd + THU, vehicle 1.110
  Caspase-3 % of positive cells: 1.210%
EP tumors [3]; 24 hr after IP injection of FdCyd + THU, vehicle 1.427
  Caspase-3 % of positive cells: 1.030%
EP cells [4]
  EC50: 50 nM
[5]
  fraction unbound: ~1
[6]
  EC50: 1.7 nM
G3 MB tumors [7]; 3 hr after IP injection of FdCyd + THU, vehicle 87.77
  Ki67 % of positive cells: 84.97%
G3 MB tumors [7]; 8 hr after IP injection of FdCyd + THU, vehicle 78.11
  Ki67 % of positive cells: 76.50%
G3 MB tumors [7]; 24 hr after IP injection of FdCyd + THU, vehicle 85.15
  Ki67 % of positive cells: 77.15%
CPC cells; [16]
  EC50: 63 ± 28 nM
CPC cells; [17]
  EC50: 58 nM
CPC cells; [18]
  EC50: 44 nM
CPC cells; [19]
  EC50: 31 nM
CPC cells; [20]
  EC50: 1 nM
EP cells [8]; [16]
  EC50: 22 ± 8 nM
EP cells [8]; [17]
  EC50: 17 nM
EP cells [8]; [18]
  EC50: 13 nM
EP cells [8]; [19]
  EC50: 3 nM
EP cells [8]; [20]
  EC50: 0.7 nM
[9]
  number of apoptotic cells (Annexin V): increased
G3 MB tumors [10]; 3 hr after IP injection of FdCyd + THU, vehicle 12.37
  Caspase-3 % of positive cells: 19.88%
G3 MB tumors [10]; 8 hr after IP injection of FdCyd + THU, vehicle 8.945
  Caspase-3 % of positive cells: 11.04%
G3 MB tumors [10]; 24 hr after IP injection of FdCyd + THU, vehicle 9.419
  Caspase-3 % of positive cells: 10.38%
[11]
  sensitivity to FdCyd (growth inhibition): showed sensitivity
[12]
  EC50: 1 nM
G3 MB (Myc1) cells; [16]
  EC50: 8 ± 2 nM
G3 MB (Myc1) cells; [17]
  EC50: 5 nM
G3 MB (Myc1) cells; [18]
  EC50: 4 nM
G3 MB (Myc1) cells; [19]
  EC50: 2.3 nM
G3 MB (Myc1) cells; [20]
  EC50: 1 nM
HEPG2 cells
  sensitivity to FdCyd (growth inhibition): not
[13]
  sensitivity to FdCyd (growth inhibition): showed sensitivity
EP tumors [14]; 3 hr after IP injection of FdCyd + THU, vehicle 81.79
  Ki67 % of positive cells: 77.06%
EP tumors [14]; 8 hr after IP injection of FdCyd + THU, vehicle 80.10
  Ki67 % of positive cells: 72.88%
EP tumors [14]; 24 hr after IP injection of FdCyd + THU, vehicle 68.41
  Ki67 % of positive cells: 72.62%
[15]
  EC50: 8.3 nM
